Measurements as given in patent US11851391B2, “Antifungal compounds and methods of forming the same” (University of Kentucky Research Foundation, priority 2018, dated 2023).
Converted amounts (≈) assume the structure as drawn. Where two headings read alike, the source gives them in different places.

Columns and labels:
[1] = system: C. albicans ATCC MYA-2310(S) (strain E); experiment: MIC determination, in vitro antifungal assay (CLSI M27-A3); type: cell-based, Candida albicans; settings: MIC-0, 48 h at 35° C.
Procedure: (§1) The activity of N,N′-diaryl-bishydrazones 7-22 was tested against a panel of seven strains of C. albicans: ATCC 10231(R) (A), ATCC 64124(R) (B), ATCC MYA-2876(S) (C), ATCC 90819(R) (D), ATCC MYA-2310(S) (E), ATCC MYA-1237(R) (F), and ATCC MYA-1003(R) (G). The activity of these bishydrazones 7-22 was also explored against a panel of three non-albicans Candida strains: C. glabrata ATCC 2001 (H), C. krusei ATCC 6258 (I), and C. parapsilosis ATCC 22019 (J). Finally, the activity of these bishydrazones 7-22 was explored against three Aspergillus strains: A. flavus ATCC MYA-3631 (K), A. nidulans ATCC 38163 (L), and A. terreus ATCC MYA-3633 (M).
(§2) Candida albicans ATCC 10231 (A), C. albicans ATCC 64124 (B), and C. albicans ATCC MYA-2876 (C) were kindly provided by Dr. Jon Y. Takemoto (Utah State University, Logan, UT, USA). C. albicans ATCC 90819 (D), C. albicans ATCC MYA-2310 (E), C. albicans ATCC MYA-1237 (F), C. albicans ATCC MYA-1003 (G), Candida glabrata ATCC 2001 (H), Candida krusei ATCC 6258 (I), Candida parapsilosis ATCC 22019 (J), Aspergillus flavus ATCC MYA-3631 (K), and Aspergillus terreus ATCC MYA-3633 (M) were obtained from the American Type Culture Collection (ATCC; Manassas, VA, USA). Aspergillus nidulans ATCC 38163 (L) was received from Dr. Jon S. Thorson (University of Kentucky, Lexington, KY, USA). Filamentous fungi and yeasts were cultivated at 35° C. in RPMI 1640 medium (with 1-glutamine, without sodium biocarbonate, Sigma-Aldrich, St. Louis, MO) buffered to a pH of 7.0 with 0.165 M morpholinepropanesulfonic acid (MOPS) buffer (Sigma-Aldrich).
(§3) The MIC values of compounds 7a-24c against yeast cells (strains A-J) were determined in 96-well plates as described in the CLSI document M27-A3 with minor modifications. A single colony of freshly prepared yeast cells was used to inoculate 5 mL of yeast extract peptone dextrose (YPD) broth prior to incubation overnight with shaking at 200 rpm at 35° C. From the actively growing yeast culture, 100 μL were then transferred to 900 μL of sterile ddH2O and re-adjusted to achieve OD600 of 0.12 (˜1×10^6 CFU/mL). The cell suspension was further diluted to achieve 2-4×10^3 CFU/mL in RPMI 1640 medium. […] The final concentration of DMSO was ensured to be <1.25% in all experiments. The MIC values for compounds 7a-24c and CAS were defined as the minimum drug concentration that yielded complete inhibition (also known as MIC-0).

[2] = system: C. albicans ATCC 64124(R) (strain B); experiment: as above; type: cell-based, Candida albicans; settings: strain B, MIC-0, 48 h at 35° C.
Procedure: as §1, §2, §3

[3] = system: C. albicans ATCC 90819(R) (strain D); experiment: as above; type: cell-based, Candida albicans; settings: Candida albicans, ATCC90819, 48 h, MIC-0, 48 h at 35° C., read-out: MIC
Procedure: as §1, §2, §3

[4] = system: C. albicans ATCC MYA-1237(R) (strain F); experiment: as above; type: cell-based, Candida albicans; settings: Candida albicans, 48 h, MIC-0, 48 h at 35° C., read-out: MIC
Procedure: as §1, §2, §3

[5] = system: Candida albicans ATCC 10231(R) (strain A); experiment: as above; type: cell-based; settings: MIC-0 (no visible growth), 48 h at 35° C.
Procedure: as §1, §2, §3

[6] = system: Candida parapsilosis ATCC 22019 (strain J); experiment: as above; type: cell-based; settings: strain J, MIC-0, 48 h at 35° C.
Procedure: as §1, §2, §3

[7] = system: Candida glabrata ATCC 2001 (strain H); experiment: as above; type: cell-based; settings: MIC-0, 48 h at 35° C.
Procedure: as §1, §2
(§4) A single colony of freshly prepared yeast cells was used to inoculate 5 mL of yeast extract peptone dextrose (YPD) broth prior to incubation overnight with shaking at 200 rpm at 35° C. From the actively growing yeast culture, 100 μL were then transferred to 900 μL of sterile ddH2O and re-adjusted to achieve OD600 of 0.12 (˜1×10^6 CFU/mL). The cell suspension was further diluted to achieve 2-4×10^3 CFU/mL in RPMI 1640 medium. […] The final concentration of DMSO was ensured to be <1.25% in all experiments.

[8] = system: Candida krusei ATCC 6258 (strain I); experiment: as above; type: cell-based; settings: MIC-0, 48 h at 35° C.
Procedure: as §1, §2, §4

[9] = system: Aspergillus terreus ATCC MYA-3633 (strain M); experiment: MIC determination against filamentous fungi (CLSI M38-A2); type: cell-based; settings: Aspergillus terreus, 48 h, MIC-0, 48 h at 35° C., read-out: MIC
Procedure: as §1, §2
(§5) Similarly, the MIC values of compounds 7a-24c, as well as that of the two control drugs against filamentous fungi (strains K-M) were determined as previously described in CLSI document M38-A2. Spores were harvested from sporulating cultures growing on potato dextrose agar (PDA) by filtration through sterile glass wool and enumerated by using a hemocytometer to obtain the desired inoculum size. […] Spore suspensions were added to the wells to afford a final concentration of 5×10^5 CFU/mL. The plates were incubated at 35° C. for 48 h. The MIC values of compounds 7a-24c and CAS against filamentous fungi were based on the complete inhibition of growth when compared to the growth control (MIC-0). […] Each test was performed in triplicate.

[10] = system: Aspergillus flavus ATCC MYA-3631 (strain K); experiment: as above; type: cell-based; settings: Aspergillus flavus, 48 h, MIC-0, 48 h at 35° C., read-out: MIC
Procedure: as §1, §2, §5

[11] = system: Aspergillus nidulans ATCC 38163 (strain L); experiment: as above; type: cell-based; settings: Aspergillus nidulans, ATCC38163, 48 h, MIC-0, 48 h at 35° C., read-out: MIC
Procedure: as §1, §2, §5

[12] = system: C. albicans ATCC MYA-2876(S) (strain C); experiment: MIC determination, in vitro antifungal assay (CLSI M27-A3); type: cell-based, Candida albicans; settings: MIC-0, 48 h at 35° C.
Procedure: as §1, §2, §4

[13] = system: C. albicans ATCC MYA-1003(R) (strain G); experiment: as above; type: cell-based, Candida albicans; settings: Candida albicans, 48 h, MIC-0, 48 h at 35° C., read-out: MIC
Procedure: as §1, §2, §4

[14] = Candida albicans, 48 h, read-out: MIC
[15] = Candida albicans, ATCC64124, 48 h, read-out: MIC
[16] = Candida albicans, ATCC10231, 48 h, read-out: MIC
[17] = Lodderomyces parapsilosis, ATCC22019, 48 h, read-out: MIC
[18] = Nakaseomyces glabratus, ATCC2001, 48 h, read-out: MIC
[19] = Pichia kudriavzevii, ATCC6258, 48 h, read-out: MIC

Row | Structure (SMILES) | MIC [1, 14] | MIC [1] | MIC [2, 15] | MIC [2] | MIC [3] | MIC [4] | MIC [5, 16] | MIC [5] | MIC [6, 17] | MIC [6] | MIC [7] | MIC [7, 18] | MIC [8] | MIC [8, 19] | MIC [9] | MIC [10] | MIC [11] | MIC [12, 14] | MIC [12] | MIC [13]
1 | COc1cccc(N/N=C(\C)c2ccc(-c3ccc(/C(C)=N/Nc4cccc(OC)c4)cc3)cc2)c1 [Compound 11c] | 15.6 µg/mL (≈ 32.6 µM) | 15.6 µg/mL (≈ 32.6 µM) | 0.98 to 3.9 µg/mL (≈ 2.05 to 8.15 µM) | 0.98 µg/mL (≈ 2.05 µM) | 31.3 µg/mL (≈ 65.4 µM) | 31.3 µg/mL (≈ 65.4 µM) | 0.98 to 3.9 µg/mL (≈ 2.05 to 8.15 µM) | 0.98 µg/mL (≈ 2.05 µM) | 15.6 µg/mL (≈ 32.6 µM) | 15.6 µg/mL (≈ 32.6 µM) | 15.6 µg/mL (≈ 32.6 µM) | 15.6 µg/mL (≈ 32.6 µM) | 0.98 µg/mL (≈ 2.05 µM) | 0.98 to 3.9 µg/mL (≈ 2.05 to 8.15 µM) | > 31.3 µg/mL | > 31.3 µg/mL | > 31.3 µg/mL | 15.6 µg/mL (≈ 32.6 µM) | 15.6 µg/mL (≈ 32.6 µM) | 
2 | Fc1ccccc1N/N=C/c1ccc(-c2ccc(/C=N/Nc3ccccc3F)cc2)cc1 [Compound 10b] | > 31.3 µg/mL |  | > 31.3 µg/mL |  | 31.3 µg/mL (≈ 73.4 µM) | > 31.3 µg/mL | 3.9 µg/mL (≈ 9.14 µM) |  | > 31.3 µg/mL |  |  | > 31.3 µg/mL |  | 3.9 µg/mL (≈ 9.14 µM) | > 31.3 µg/mL | > 31.3 µg/mL | 31.3 µg/mL (≈ 73.4 µM) | 15.6 µg/mL (≈ 36.6 µM) |  | 15.6 µg/mL (≈ 36.6 µM)
3 | Fc1ccc(F)c(N/N=C/c2ccc(-c3ccc(/C=N/Nc4cc(F)ccc4F)cc3)cc2)c1 [Compound 21b] | > 31.3 µg/mL |  | > 31.3 µg/mL |  | > 31.3 µg/mL | > 31.3 µg/mL | 31.3 µg/mL (≈ 67.7 µM) |  | > 31.3 µg/mL |  |  | > 31.3 µg/mL |  | > 31.3 µg/mL | > 31.3 µg/mL | > 31.3 µg/mL | > 31.3 µg/mL | > 31.3 µg/mL |  | > 31.3 µg/mL

Other lines, results leading:

Row | MIC [1, 14] | MIC [1] | MIC [2, 15] | MIC [2] | MIC [3] | MIC [4] | MIC [5, 16] | MIC [5] | MIC [6, 17] | MIC [6] | MIC [7] | MIC [7, 18] | MIC [8] | MIC [8, 19] | MIC [9] | MIC [10] | MIC [11] | MIC [12, 14] | MIC [12] | MIC [13] | Structure (SMILES)
4 | 15.6 µg/mL (≈ 44.5 µM) |  | 3.9 µg/mL (≈ 11.1 µM) |  | 3.9 µg/mL (≈ 11.1 µM) | 15.6 µg/mL (≈ 44.5 µM) | 3.9 µg/mL (≈ 11.1 µM) |  | 1.95 µg/mL (≈ 5.56 µM) |  |  | 7.8 µg/mL (≈ 22.3 µM) |  | 3.9 µg/mL (≈ 11.1 µM) | > 31.3 µg/mL | > 31.3 µg/mL | 15.6 µg/mL (≈ 44.5 µM) | 15.6 µg/mL (≈ 44.5 µM) |  | 15.6 µg/mL (≈ 44.5 µM) | C/C(=N\NC(=N)N)c1ccc(-c2ccc(/C(C)=N/NC(=N)N)cc2)cc1 [Compound 24c]
5 | > 31.3 µg/mL |  | > 31.3 µg/mL |  | > 31.3 µg/mL | > 31.3 µg/mL | 31.3 µg/mL (≈ 97.1 µM) |  | 3.9 µg/mL (≈ 12.1 µM) |  |  | > 31.3 µg/mL |  | 15.6 µg/mL (≈ 48.4 µM) | > 31.3 µg/mL | > 31.3 µg/mL | > 31.3 µg/mL | > 31.3 µg/mL |  | 15.6 µg/mL (≈ 48.4 µM) | N=C(N)N/N=C/c1ccc(-c2ccc(/C=N/NC(=N)N)cc2)cc1 [Compound 24b]
